Results reported in ChEMBL document CHEMBL1201862, “PubChem BioAssay data set” (2004).
The source made the active and inactive calls. Rule as the data show it, for most assays here: actives have a measured EC50 and inactives only a lower limit.

What was measured:
[1] = luciferase reporter signal suppression in cells – H4 neuroglioma cells, luminescence, dose response (AID 1990); format: functional, cell-based
[2] = luciferase reporter signal reduction – luminescence, H4-C neuroglioblastoma cells, dose response (AID 2458); format: functional, cell-based;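 also: H4 neuroglioblastoma cells stably carrying a luciferase reporter gene fusion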
BJ [3] = test: BJ-TERT fibroblast viability loss – cell-based, RAS-independent, luminescence, dose response (AID 1933); format: functional; settings: Homo sapiens
cells [4] = format: functional, cell-based
[5] = Luminescence Cell-Based Dose Response HTS to Identify Inhibitors of 5'UTR Stem-Loop Driven Prion Protein mRNA Translation in H4 Neuroglioblastoma Cells. [Related pubchem assays: 1827 (Project Summary), 1813 (Primary HTS)]; format: functional
[6] = alpha-synuclein stem-loop luciferase translation blockers – H4 neuroglioma cells, luminescence, confirmation (AID 1988); format: functional, cell-based
BJ [7] = test: cells; format: functional, cell-based; settings: Homo sapiens
[8] = Luminescence-based dose response cell-based high throughput screening assay for cytotoxic compounds using the IEC-6 intestinal epithelial cell line. [Related pubchem assays: 1858 (Summary AID.), 1825 (Counterscreen.), 1907 (Confirmation screen.)]; format: functional
BJ [9] = test: BJ-TERT-LT-ST fibroblast viability loss – cell-based, RAS-independent, luminescence, dose response (AID 1935); format: functional; settings: Homo sapiens;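 also: BJ fibroblasts immortalized with TERT plus LT and ST oncogenes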
[10] = DRD fibroblast viability loss – cell-based, non-viral oncogenic, luminescence, dose response (AID 1934); format: functional; settings: Homo sapiens
[11] = alpha-synuclein stem-loop translation blockers – luminescence, H4 neuroglioblastoma cells, dose confirmation, confirmation (AID 2454); format: functional, cell-based;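 also: H4 neuroglioblastoma cells carrying an alpha-synuclein 5'UTR luciferase reporter; potency for inhibition of the luciferase signal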
BJ [12] = test: growth inhibition of engineered Ras-driven BJ cells – cell-based, alamar blue fluorescence, cherrypicked samples, dose response (AID 2631); format: functional; settings: Homo sapiens;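 also: confirmatory dose-response assay in RAS-dependent BJ fibroblasts engineered with TERT, LT and ST, with cytotoxicity read by fluorescence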
[13] = NIH-3T3 fibroblast cytotoxicity, dose response, cytotoxicity control, cell-based, fluorescence, Alamar Blue, secondary assay (AID 2327); format: functional;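 also: NIH-3T3 mouse fibroblasts cultured with fluconazole at 8 µg/mL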
[14] = test system: Streptococcus sp. 'group A'; test: Streptococcus pyogenes SK(-)GAS viability under kanamycin – luminescence, BacTiterGlo, confirmation, counter-screen for streptokinase expression inhibitor project, dose response (AID 1900); format: functional, organism-based
Streptokinase A = biological target: T1, Streptokinase A (Streptococcus pyogenes serotype M1, UniProt P10520); test: viability-normalized secreted streptokinase activity reduction – plasminogen activation absorbance, OD405, dose response (AID 1914); format: functional, Streptococcus pyogenes M1 GAS;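 also: secreted streptokinase activity via plasminogen activation per viability signal from cell pellet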
T1 sequence (P10520 whole entry): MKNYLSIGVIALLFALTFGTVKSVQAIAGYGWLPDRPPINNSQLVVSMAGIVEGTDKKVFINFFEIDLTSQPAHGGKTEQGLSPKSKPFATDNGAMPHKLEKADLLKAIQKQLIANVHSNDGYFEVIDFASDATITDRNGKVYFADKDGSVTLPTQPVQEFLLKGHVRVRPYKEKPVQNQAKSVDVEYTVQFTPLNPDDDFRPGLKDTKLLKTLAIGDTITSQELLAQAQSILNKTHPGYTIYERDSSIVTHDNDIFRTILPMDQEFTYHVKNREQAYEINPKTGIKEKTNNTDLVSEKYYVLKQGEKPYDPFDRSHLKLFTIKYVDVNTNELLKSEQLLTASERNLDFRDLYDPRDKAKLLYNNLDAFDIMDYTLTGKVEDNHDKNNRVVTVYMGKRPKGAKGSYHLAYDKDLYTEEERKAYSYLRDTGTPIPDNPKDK

[15] = fluconazole-exposed Candida albicans growth modulators – fluorescence, retest, confirmation (AID 2467); format: functional, cell-based
Streptococcus = test: GAS UMAA2166 growth inhibition – luminescence, BacTiterGlo, counter-screen for streptokinase expression inhibitor project, dose response (AID 1915); format: functional, organism-based;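 also: potency for reduction of bacterial viability or growth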
CAAX prenyl protease 2 [16] = biological target: CAAX prenyl protease 2 (Saccharomyces cerevisiae S288c, UniProt Q03530); format: biochemical
Chain of CAAX prenyl protease 2 (Saccharomyces cerevisiae S288c, UniProt Q03530) (Q03530 whole entry): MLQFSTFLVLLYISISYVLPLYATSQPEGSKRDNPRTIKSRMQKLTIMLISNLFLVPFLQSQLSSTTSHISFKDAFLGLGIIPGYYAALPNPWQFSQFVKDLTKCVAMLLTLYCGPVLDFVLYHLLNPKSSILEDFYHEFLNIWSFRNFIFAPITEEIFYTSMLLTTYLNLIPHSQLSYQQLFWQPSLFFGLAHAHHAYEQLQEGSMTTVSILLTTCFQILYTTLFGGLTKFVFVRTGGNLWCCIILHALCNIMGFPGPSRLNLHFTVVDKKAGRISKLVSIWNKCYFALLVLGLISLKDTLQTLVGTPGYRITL

CAAX prenyl protease 1 = CAAX prenyl protease 1 (Saccharomyces cerevisiae S288c, UniProt P47154); test: yeast CAAX protease Ste24 inhibition – biochemical, S. cerevisiae, plate reader, cherry-pick, dose response (AID 488815)
Chain of CAAX prenyl protease 1 (P47154 whole entry): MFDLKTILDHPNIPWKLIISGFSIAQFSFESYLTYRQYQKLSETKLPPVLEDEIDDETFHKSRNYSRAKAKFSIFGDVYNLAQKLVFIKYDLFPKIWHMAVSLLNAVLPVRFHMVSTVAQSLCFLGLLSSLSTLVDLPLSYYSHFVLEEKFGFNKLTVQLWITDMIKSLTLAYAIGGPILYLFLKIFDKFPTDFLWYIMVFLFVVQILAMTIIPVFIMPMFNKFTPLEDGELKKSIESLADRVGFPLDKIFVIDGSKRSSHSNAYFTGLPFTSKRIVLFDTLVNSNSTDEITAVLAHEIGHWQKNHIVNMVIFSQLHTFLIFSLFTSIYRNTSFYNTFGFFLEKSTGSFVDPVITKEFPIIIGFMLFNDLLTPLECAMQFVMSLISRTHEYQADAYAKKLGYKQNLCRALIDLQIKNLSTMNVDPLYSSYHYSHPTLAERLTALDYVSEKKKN

CAAX prenyl protease 2 [17] = biological target: CAAX prenyl protease 2 (Homo sapiens, UniProt Q9Y256); test: inhibition of Ras-converting CAAX protease Rce1 – biochemical, yeast membranes, quenched-peptide fluorescence, cherry-pick, dose response (AID 588849)
Chain of CAAX prenyl protease 2 (Homo sapiens, UniProt Q9Y256) (Q9Y256 whole entry): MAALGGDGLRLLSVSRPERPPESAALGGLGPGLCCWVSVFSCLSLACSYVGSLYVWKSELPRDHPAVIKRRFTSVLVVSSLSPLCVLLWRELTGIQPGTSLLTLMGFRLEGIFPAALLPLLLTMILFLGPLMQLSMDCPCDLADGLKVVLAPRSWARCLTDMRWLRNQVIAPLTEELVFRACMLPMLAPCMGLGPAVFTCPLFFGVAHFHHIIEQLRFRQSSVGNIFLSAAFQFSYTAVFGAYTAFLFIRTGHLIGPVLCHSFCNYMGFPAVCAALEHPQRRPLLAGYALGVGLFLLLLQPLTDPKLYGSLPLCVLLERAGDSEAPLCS

[18] = biological target: T2, Short transient receptor potential channel 4 (Mus musculus, UniProt Q9QUQ5); test: SAR Analysis for the identification of selective inhibits of the transient receptor potential cation channel C4 (TRPC4): Automated Electrophysiology. [Related pubchem assays (depositor defined):AID2256]; format: functional
T2 sequence (Q9QUQ5 whole entry): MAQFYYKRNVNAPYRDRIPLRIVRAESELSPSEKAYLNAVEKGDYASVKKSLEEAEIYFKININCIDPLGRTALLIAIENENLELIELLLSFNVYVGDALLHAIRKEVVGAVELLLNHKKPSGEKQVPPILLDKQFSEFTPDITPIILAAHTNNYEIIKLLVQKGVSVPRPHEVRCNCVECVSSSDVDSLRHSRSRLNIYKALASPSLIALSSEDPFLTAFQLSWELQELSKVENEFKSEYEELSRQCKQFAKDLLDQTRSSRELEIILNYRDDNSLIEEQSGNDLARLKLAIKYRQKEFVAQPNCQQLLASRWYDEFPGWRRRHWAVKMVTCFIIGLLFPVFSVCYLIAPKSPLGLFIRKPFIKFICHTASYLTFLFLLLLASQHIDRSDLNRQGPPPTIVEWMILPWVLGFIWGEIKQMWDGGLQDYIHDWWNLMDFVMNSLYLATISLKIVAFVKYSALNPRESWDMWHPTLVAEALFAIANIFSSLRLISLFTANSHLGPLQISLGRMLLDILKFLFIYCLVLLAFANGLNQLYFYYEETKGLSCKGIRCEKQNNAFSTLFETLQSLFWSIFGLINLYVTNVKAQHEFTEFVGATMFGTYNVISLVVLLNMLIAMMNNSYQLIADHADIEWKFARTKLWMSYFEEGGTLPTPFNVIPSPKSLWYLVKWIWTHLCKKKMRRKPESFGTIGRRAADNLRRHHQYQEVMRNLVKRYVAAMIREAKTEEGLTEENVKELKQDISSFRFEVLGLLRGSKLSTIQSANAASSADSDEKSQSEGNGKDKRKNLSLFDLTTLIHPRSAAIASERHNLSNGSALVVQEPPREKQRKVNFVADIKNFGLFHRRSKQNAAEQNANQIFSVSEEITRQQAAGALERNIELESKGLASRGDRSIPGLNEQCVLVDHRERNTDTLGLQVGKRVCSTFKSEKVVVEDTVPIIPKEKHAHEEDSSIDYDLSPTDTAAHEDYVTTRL

[19] = biological target: T2, Short transient receptor potential channel 4; test: mouse TRPC4 block via Gq-coupled stimulation – cell-based, acetylcholine stimulus, HEK293 TRPC4, Fluo-4, SAR follow-up (AID 492996); format: functional
[20] = biological target: Short transient receptor potential channel 6 (Mus musculus, UniProt Q61143); test: mouse TRPC6 channel blockers, concentration series – HEK293 cells, membrane potential dye, IC50, selectivity assay for selective TRPC4 inhibitor project, dose response (AID 492987); format: functional, cell-based
Chain of Short transient receptor potential channel 6 (Q61143 whole entry): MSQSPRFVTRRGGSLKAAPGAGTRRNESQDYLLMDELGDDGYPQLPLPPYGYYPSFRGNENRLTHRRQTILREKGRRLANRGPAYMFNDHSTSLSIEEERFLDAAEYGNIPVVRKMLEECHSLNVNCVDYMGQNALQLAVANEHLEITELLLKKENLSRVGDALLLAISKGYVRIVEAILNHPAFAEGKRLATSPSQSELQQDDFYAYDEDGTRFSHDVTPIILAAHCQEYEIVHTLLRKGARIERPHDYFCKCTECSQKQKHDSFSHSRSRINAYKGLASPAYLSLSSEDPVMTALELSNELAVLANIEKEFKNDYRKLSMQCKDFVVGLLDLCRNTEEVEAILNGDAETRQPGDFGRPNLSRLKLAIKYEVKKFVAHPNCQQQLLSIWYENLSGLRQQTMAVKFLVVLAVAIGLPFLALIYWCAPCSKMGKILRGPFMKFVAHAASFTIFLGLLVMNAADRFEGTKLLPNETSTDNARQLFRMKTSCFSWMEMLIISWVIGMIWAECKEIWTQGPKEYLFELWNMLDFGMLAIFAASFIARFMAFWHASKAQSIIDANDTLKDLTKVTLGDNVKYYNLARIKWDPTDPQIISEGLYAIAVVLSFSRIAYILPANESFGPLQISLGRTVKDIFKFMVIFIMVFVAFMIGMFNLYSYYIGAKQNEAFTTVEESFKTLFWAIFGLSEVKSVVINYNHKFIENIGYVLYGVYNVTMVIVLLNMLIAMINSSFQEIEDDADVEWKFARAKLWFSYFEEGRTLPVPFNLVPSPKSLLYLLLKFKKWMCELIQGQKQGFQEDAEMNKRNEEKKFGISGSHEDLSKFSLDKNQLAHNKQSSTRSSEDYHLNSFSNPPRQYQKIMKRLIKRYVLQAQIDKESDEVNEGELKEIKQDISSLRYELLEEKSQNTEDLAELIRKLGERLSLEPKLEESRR

[21] = biological target: T2, Short transient receptor potential channel 4; test: potency of mouse TRPC4 calcium flux blockers – cell-based, HEK293 TRPC4/mu-opioid, DAMGO stimulus, Fluo-4, dose response (AID 492994); format: functional
[22] = biological target: Luciferin 4-monooxygenase (Photuris pensylvanica, UniProt Q27757); test: inhibition of Cell Titer Glo luciferase signal – biochemical, luminescence, cherry-picks, counter-screen for HSF-1 reporter inhibitor project, dose response (AID 588847)
Chain of Luciferin 4-monooxygenase (Photuris pensylvanica, UniProt Q27757) (Q27757 whole entry): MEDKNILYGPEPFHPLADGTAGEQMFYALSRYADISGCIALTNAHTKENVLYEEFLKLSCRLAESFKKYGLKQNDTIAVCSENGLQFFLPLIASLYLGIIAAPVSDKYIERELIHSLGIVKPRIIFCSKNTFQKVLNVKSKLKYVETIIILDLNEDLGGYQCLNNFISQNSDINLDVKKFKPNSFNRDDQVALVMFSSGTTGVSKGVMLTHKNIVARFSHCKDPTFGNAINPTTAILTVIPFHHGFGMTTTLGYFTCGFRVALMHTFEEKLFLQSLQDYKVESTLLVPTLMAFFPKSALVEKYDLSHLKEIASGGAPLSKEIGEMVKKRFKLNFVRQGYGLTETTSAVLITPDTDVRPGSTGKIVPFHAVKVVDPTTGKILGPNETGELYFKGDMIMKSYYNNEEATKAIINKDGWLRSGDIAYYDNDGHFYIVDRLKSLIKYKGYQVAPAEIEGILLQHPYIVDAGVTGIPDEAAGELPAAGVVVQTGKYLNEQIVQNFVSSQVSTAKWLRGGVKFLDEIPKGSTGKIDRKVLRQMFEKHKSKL

HEK293 = test: EBV LMP1 TES2 canonical NF-kB signalling blockers – cell-based, HEK293, luciferase, cherry-pick, dose response (AID 588343); format: functional; settings: Homo sapiens
[23] = biological target: Latent membrane protein 1 (Human herpesvirus 4 (strain B95-8), UniProt P03230); test: LMP1 TES1 pathway selectivity over dsRED control – imaging, HEK293T, dual-color eGFP/dsRED, cherry-picks, selectivity assay for LMP1 NF-kB inhibitor project, dose response (AID 588398); format: functional, cell-based
Chain of Latent membrane protein 1 (P03230 whole entry): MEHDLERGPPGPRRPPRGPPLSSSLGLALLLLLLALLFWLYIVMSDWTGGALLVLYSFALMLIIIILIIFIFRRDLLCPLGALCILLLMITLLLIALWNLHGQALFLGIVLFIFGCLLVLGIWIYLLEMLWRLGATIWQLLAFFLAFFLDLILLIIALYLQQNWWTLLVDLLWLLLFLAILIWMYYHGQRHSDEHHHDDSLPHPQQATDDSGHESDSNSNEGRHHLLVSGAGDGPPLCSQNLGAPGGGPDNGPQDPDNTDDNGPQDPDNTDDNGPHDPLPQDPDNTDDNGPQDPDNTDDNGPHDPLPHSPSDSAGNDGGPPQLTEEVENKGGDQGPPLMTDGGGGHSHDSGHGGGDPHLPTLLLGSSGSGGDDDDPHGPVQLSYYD

[24] = biological target: T3, Corticotropin-releasing factor receptor 2/Corticotropin-releasing factor-binding protein (Homo sapiens, UniProt P24387+Q13324); test: activators of CRF receptor 2 with binding protein – uHTS hits, confirmation (AID 602473); format: functional; settings: read-out: EC50_Mean
T3 sequence (Q13324 whole entry): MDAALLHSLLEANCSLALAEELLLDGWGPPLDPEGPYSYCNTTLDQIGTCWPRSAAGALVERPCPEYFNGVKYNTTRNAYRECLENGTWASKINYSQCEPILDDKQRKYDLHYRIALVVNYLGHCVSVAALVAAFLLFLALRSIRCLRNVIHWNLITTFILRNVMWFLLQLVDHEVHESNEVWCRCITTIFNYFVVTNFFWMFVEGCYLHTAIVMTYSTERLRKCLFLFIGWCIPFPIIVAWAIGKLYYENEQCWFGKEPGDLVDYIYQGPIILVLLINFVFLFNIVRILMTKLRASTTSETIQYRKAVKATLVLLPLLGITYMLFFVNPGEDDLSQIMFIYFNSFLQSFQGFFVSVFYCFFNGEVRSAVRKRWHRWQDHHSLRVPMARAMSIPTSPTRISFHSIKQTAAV
T3 sequence (P24387 whole entry): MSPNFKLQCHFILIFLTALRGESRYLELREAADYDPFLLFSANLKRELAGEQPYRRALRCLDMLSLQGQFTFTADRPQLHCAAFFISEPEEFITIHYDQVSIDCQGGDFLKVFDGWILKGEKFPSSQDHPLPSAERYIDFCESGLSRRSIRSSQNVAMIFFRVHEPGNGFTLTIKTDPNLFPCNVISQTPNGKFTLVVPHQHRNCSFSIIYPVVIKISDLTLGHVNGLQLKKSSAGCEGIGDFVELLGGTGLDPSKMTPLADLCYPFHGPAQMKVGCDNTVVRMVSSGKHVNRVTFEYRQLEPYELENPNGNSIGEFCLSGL

Beta-galactosidase = Beta-galactosidase (Escherichia coli, UniProt Q8VNN2); test: PubChem AID 485352; format: functional
Chain of Beta-galactosidase (Q8VNN2 whole entry): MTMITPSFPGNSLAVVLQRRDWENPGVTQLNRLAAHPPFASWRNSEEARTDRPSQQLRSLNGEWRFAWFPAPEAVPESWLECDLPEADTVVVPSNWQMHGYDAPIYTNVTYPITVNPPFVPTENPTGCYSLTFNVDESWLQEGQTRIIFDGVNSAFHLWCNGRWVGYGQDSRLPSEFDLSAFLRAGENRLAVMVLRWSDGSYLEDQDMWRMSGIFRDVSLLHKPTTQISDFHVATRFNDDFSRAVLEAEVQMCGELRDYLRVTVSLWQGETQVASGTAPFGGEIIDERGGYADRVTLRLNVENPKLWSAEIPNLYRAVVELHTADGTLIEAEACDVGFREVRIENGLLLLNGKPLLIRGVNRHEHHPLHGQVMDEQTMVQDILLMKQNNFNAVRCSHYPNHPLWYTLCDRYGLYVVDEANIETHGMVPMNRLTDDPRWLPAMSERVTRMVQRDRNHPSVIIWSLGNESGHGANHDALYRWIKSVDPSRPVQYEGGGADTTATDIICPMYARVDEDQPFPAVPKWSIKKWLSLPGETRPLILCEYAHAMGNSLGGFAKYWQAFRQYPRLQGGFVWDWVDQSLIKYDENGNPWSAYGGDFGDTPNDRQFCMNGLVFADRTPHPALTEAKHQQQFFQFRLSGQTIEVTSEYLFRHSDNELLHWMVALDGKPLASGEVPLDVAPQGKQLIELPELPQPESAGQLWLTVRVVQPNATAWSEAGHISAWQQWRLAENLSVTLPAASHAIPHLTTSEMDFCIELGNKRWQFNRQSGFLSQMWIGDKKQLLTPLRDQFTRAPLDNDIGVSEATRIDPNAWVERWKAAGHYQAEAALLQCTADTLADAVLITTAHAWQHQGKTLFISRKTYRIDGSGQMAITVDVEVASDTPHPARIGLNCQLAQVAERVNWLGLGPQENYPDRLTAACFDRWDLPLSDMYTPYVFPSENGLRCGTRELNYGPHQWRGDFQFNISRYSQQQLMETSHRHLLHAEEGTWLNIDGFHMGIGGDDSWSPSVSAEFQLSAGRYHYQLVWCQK

[25] = biological target: Type-1 angiotensin II receptor (Homo sapiens, UniProt P30556); test: antagonism of angiotensin II type 1 receptor – cell-based, uHTS hits, selectivity assay for APJ receptor antagonist project, dose response (AID 463214); format: functional;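 also: antagonist potency against angiotensin II stimulated AT1 response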
Chain of Type-1 angiotensin II receptor (P30556 whole entry): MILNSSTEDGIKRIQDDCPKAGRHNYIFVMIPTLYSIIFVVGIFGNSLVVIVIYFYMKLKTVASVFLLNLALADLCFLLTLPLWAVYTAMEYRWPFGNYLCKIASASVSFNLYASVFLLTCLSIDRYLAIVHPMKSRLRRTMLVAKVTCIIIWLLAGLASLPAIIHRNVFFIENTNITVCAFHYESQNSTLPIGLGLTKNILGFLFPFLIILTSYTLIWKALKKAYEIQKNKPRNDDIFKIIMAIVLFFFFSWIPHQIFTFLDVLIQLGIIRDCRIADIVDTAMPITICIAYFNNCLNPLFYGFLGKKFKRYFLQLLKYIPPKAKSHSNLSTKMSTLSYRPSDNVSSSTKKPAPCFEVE

[26] = biological target: Luciferin 4-monooxygenase (Photinus pyralis, UniProt P08659); test: inhibition of purified Photinus pyralis luciferase – biochemical, luminescence, dose response (AID 1891)
Chain of Luciferin 4-monooxygenase (Photinus pyralis, UniProt P08659) (P08659 whole entry): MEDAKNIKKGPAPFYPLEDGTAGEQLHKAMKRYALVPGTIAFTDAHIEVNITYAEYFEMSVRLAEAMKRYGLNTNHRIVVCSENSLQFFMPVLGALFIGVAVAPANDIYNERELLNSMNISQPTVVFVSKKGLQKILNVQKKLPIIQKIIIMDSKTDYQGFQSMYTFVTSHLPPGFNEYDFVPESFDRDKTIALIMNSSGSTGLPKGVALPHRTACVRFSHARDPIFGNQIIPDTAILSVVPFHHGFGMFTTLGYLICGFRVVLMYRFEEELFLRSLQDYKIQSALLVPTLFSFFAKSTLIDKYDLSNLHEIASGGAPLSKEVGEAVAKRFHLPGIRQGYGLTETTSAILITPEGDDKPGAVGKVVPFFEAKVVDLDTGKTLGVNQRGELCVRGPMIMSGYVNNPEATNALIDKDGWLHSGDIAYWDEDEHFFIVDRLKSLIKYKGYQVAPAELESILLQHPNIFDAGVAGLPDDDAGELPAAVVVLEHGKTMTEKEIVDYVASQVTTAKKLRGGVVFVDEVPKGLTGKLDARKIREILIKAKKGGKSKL

[27] = Luminescence Cell-Based Dose Confirmation HTS to Identify Inhibitors of Platelet Dense Granule Release. [Related pubchem assays: 1663 (Primary HTS), 1678 (Summary of Project)]; format: functional
[28] = luciferase inhibitors in kinase-free ADP detection – biochemical, luminescence, cherry-pick, set 02, artefact control for Dyrk1A inhibitor project, dose response (AID 588348)
[29] = biological target: Dual specificity tyrosine-phosphorylation-regulated kinase 1A (Rattus norvegicus, UniProt Q63470); format: biochemical, Homo sapiens
[30] = biological target: T4, Oxysterols receptor LXR-beta (Homo sapiens, UniProt P55055); format: functional, cell-based;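 also: Cell-based luminescence dose-response assay of agonist activity at LXR, run as a confirmatory counterscreen to a daf-12 agonist screen; HEK293 cells with Gal4-LXR fusion and GAL4-driven luciferase reporter; agonist potency from rising luciferase signal of a Gal4-LXR reporter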
T4 sequence (P55055 whole entry): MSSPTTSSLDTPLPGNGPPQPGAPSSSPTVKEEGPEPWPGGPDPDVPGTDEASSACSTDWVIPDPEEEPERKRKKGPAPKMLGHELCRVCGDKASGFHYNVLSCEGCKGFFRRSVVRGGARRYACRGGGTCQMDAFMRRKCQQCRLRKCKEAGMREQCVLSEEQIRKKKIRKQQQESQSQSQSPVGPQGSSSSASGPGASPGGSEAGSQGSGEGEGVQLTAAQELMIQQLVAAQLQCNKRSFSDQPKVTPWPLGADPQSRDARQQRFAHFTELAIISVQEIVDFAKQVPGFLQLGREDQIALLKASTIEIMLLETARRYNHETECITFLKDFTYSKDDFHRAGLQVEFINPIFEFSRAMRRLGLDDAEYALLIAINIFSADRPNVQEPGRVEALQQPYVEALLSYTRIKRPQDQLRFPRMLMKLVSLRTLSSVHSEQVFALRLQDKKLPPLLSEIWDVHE

cells [31] = test: cells

C#CCOc1ccc(C2C3=C(O)OCC3=Nc3cc4c(cc32)OCO4)cc1OC (stereo unspecified)
EC50 [1]: < 0.1 µM (active) | EC50 [2]: 0.234 µM (active) | EC50 (BJ [3]): 3.14 µM (inconclusive) | EC50 (cells [4]): 0.371 µM (active) | EC50 [5]: < 0.1 µM (active) | EC50 [6]: < 0.1 µM (active) | EC50 (BJ [7]): 2.72 µM (inconclusive) | IC50 [8]: 0.0471 µM (active) | EC50 (BJ [9]): 0.942 µM (active) | EC50 [10]: 0.9 µM (inconclusive) | EC50 [11]: 0.231 µM (active) | EC50 (BJ [12]): < 0.104 µM (active)

CCCCCc1ccc(OCCOCC[n+]2cn(C)c3ccccc32)c(CCCCC)c1
EC50 [13]: > 150 µM (inactive) | EC50 [14]: 6.43 µM (active) | EC50 (Streptokinase A): 13.5 µM (active) | EC50 [15]: 1.31 µM (active) | EC50 (Streptococcus): 16.1 µM (inconclusive) | AC50 (CAAX prenyl protease 2 [16]): 9.1 µM (active) | AC50 (CAAX prenyl protease 1): 13.1 µM (active) | AC50 (CAAX prenyl protease 2 [17]): 17.9 µM (active)

Cc1cc(N2CCN(c3ccncc3)CC2)nc2ccccc12
IC50 [18]: 8.18 µM (active) | IC50 [19]: 15.2 µM (active) | IC50 [20]: 11.4 µM (active) | IC50 [21]: 19.9 µM (active)

C[C@]12C=CC(=O)C=C1CC[C@@H]1[C@@H]2[C@@H](O)C[C@@]2(C)[C@H]1CC[C@]2(O)C(=O)CO [PREDNISOLONE]
AC50 [22]: > 52 µM (inactive)

CC(C)(C)c1ccc(C(=O)N2CCC(=O)N(C(CO)Cc3ccccc3)CC2)cc1 (stereo unspecified)
AC50 (HEK293): 173 µM (active) | AC50 [23]: 347 µM (active) | EC50 [24]: > 53 µM (inactive)

O=C(CCC(=O)OCC(=O)c1ccc(Cl)cc1Cl)Nc1cccc2cccnc12
EC50 (Beta-galactosidase): > 40 µM (inactive) | IC50 [25]: > 40 µM (not active)

Cc1ccccc1C(=O)O/N=C(\N)c1ccccc1
EC50 [26]: 3.42 µM (active) | EC50 [27]: 2.72 µM (active) | AC50 [28]: 60.9 µM (active) | AC50 [29]: 62.5 µM (active) | EC50 [30]: > 67.5 µM (inactive) | EC50 (cells [31]): > 67.5 µM (inactive)
